In patent publication US9340577B2, “HLA binding motifs and peptides and their uses” (priority 1992, dated 2016):
No end group written: not given here.

What was measured:
Test in all cases: biochemical
Format in all cases: binding
HLA-A11 (A*1101) = HLA-A11 (A*1101) (Homo sapiens, UniProt P04439, A114D/D185E/E176A/F33Y/L180Q/S129P/T187R)
A*6801 = A*6801 (Homo sapiens, UniProt P04439, A269V/D185E/E176V/E277Q/E87N/F33Y/G231S/I121M/I166T/I218V/L180W/L300P/L318F/N151K/P208A/P217A/Q86R/R169H/T345S)
A31 (A*3101) = A31 (A*3101) (Homo sapiens, UniProt P04439, A270S/D185E/E176V/E277Q/F33T/G231S/G80R/H175R/I121M/I218V/I322F/K168Q/L300P/L318F/M331R/P217A/Q94H/R138Q/T323A/T345S/T97I/V358M)
A*3301 = A*3301 (Homo sapiens, UniProt P04439, A270S/D185E/E176V/E277Q/E87N/F33T/G231S/H175R/I121M/I218V/I322F/K168Q/K210R/L300P/L318F/M331R/P217A/Q86R/Q94H/R138Q/T323A/T345S/T97I/V358M/Y195H)
HLA-A*0201 (HLA-A2.1) = HLA-A*0201 (HLA-A2.1) (Homo sapiens, UniProt P04439, D140Y/D185E/D98H/E176V/E277Q/G131W/G231S/I119V/I121R/I166T/I218V/L300P/L318F/N151K/N90K/P208A/P217A/Q86G/Q94H/R138H/R169H/T345S)

MSFLTALKR [Peptide 1587.11]
IC50 (HLA-A11 (A*1101)): 26 nM | IC50 (A*6801): 2.4 nM | IC50 (A31 (A*3101)): 49 nM

QQLLRREVY [Peptide E6-42]
binding class for HLA-A11.2 (HLA-A11 (A*1101)): weak affinity

QQQMFLGTVK [Peptide 88.0219]
IC50 (HLA-A11 (A*1101)): 13 nM | IC50 (A*6801): 1460 nM | IC50 (A*3301): > 20000 nM

RQLKETELRK [Peptide 9012.0249]
IC50 (A*6801): > 20000 nM | IC50 (A*3301): 12600 nM | IC50 (A31 (A*3101)): > 20000 nM

RQRKIDWLIK [Peptide 9017.0247]
IC50 (A*6801): > 20000 nM | IC50 (A*3301): > 20000 nM | IC50 (A31 (A*3101)): 95 nM

RTEVYQFAFK [Peptide 78.0062]
IC50 (A*6801): 3310 nM | IC50 (A*3301): 9180 nM | IC50 (A31 (A*3101)): 1690 nM

SJPPPGTRV [Peptide 1345.03]
A*0201 (HLA-A*0201 (HLA-A2.1)): 0.0545

SLFRAVITKKV
binding to HLA-A2.1 (column 3; no allele head shown for these rows) (HLA-A*0201 (HLA-A2.1)): 0.0001

SLFRAVITKKVADLV
binding to HLA-A2.1 (column 3; no allele head shown for these rows) (HLA-A*0201 (HLA-A2.1)): 0.0004

SLHCKPEEAL
A2.1 (HLA-A*0201 (HLA-A2.1)): 0.0002

SLRVLAAGL
A2.1 (HLA-A*0201 (HLA-A2.1)): 0.0001

SLSAYIIRV [Peptide 1577.43]
IC50 (HLA-A*0201 (HLA-A2.1)): 40 nM

SQIQYWQLIR [Peptide 88.0199]
IC50 (HLA-A11 (A*1101)): 84 nM | IC50 (A*3301): 7540 nM | IC50 (A31 (A*3101)): 219 nM

SREEEGPST
A2.1 (HLA-A*0201 (HLA-A2.1)): <0.0002

STSCILESL
binding to HLA-A2.1 (column 3; no allele head shown for these rows) (HLA-A*0201 (HLA-A2.1)): 0.0002

TFPHAFPFDK [Peptide 88.0176]
IC50 (A*6801): 200 nM | IC50 (A*3301): > 20000 nM | IC50 (A31 (A*3101)): 4960 nM

TLEEVPTA
A2.1 (HLA-A*0201 (HLA-A2.1)): 0

TTYAEPPK [Peptide 1556.11]
IC50 (A*6801): 320 nM | IC50 (A*3301): > 20000 nM | IC50 (A31 (A*3101)): > 20000 nM

TVTYSPALNK [Peptide 1556.40]
IC50 (A*6801): 165 nM | IC50 (A*3301): > 20000 nM | IC50 (A31 (A*3101)): > 20000 nM

TVYAEPPR [Peptide 1556.10]
IC50 (A*6801): 21 nM | IC50 (A*3301): 11800 nM | IC50 (A31 (A*3101)): 8410 nM

VIFSKASSSL
A2.1 (HLA-A*0201 (HLA-A2.1)): 0

VITKKVADL
A2.1 (HLA-A*0201 (HLA-A2.1)): <0.0003

VITKKVADLV
A2.1 (HLA-A*0201 (HLA-A2.1)): 0

VLEYVIKVSA
binding to HLA-A2.1 (column 3; no allele head shown for these rows) (HLA-A*0201 (HLA-A2.1)): 0.0002

VLGTLEEVPT
binding to HLA-A2.1 (column 3; no allele head shown for these rows) (HLA-A*0201 (HLA-A2.1)): 0.0004

VLGTLEEVPTA
binding to HLA-A2.1 (column 3; no allele head shown for these rows) (HLA-A*0201 (HLA-A2.1)): 0.0002

VLVTCLGLSYDGL
binding to HLA-A2.1 (column 3; no allele head shown for these rows) (HLA-A*0201 (HLA-A2.1)): 0.0017

VMVTCLGLSV
binding to HLA-A2.1 (column 3; no allele head shown for these rows) (HLA-A*0201 (HLA-A2.1)): 0.30

VPTAGSTDP
A2.1 (HLA-A*0201 (HLA-A2.1)): <0.0002

VQAATSSSS
A2.1 (HLA-A*0201 (HLA-A2.1)): <0.0002

VQEKYLEYG
A2.1 (HLA-A*0201 (HLA-A2.1)): <0.0002

VQLDIQSTK [Peptide 78.0301]
IC50 (HLA-A11 (A*1101)): 216 nM | IC50 (A*6801): > 20000 nM | IC50 (A*3301): > 20000 nM

VTCLGLSYD
A2.1 (HLA-A*0201 (HLA-A2.1)): <0.0002

VTKAEMLESV
binding to HLA-A2.1 (column 3; no allele head shown for these rows) (HLA-A*0201 (HLA-A2.1)): 0

VTKAEMLGSV
binding to HLA-A2.1 (column 3; no allele head shown for these rows) (HLA-A*0201 (HLA-A2.1)): <0.0002

VVEVVPISHL
binding to HLA-A2.1 (column 3; no allele head shown for these rows) (HLA-A*0201 (HLA-A2.1)): <0.0002

WTIVYIEYR [Peptide 9017.0117]
IC50 (A*6801): 17 nM | IC50 (A*3301): 92 nM

YIFATCLGL
A2.1 (HLA-A*0201 (HLA-A2.1)): 0.018

YKHCFPEIF
A2.1 (HLA-A*0201 (HLA-A2.1)): <0.0002

YLCNSSCMGGV [Peptide 1323.31]
A*0201 (HLA-A*0201 (HLA-A2.1)): 0.2300

YLEYGRCRT
binding to HLA-A2.1 (column 3; no allele head shown for these rows) (HLA-A*0201 (HLA-A2.1)): 0

YLEYGRCRTVI
binding to HLA-A2.1 (column 3; no allele head shown for these rows) (HLA-A*0201 (HLA-A2.1)): 0.0006

YLIMVKBWMV [Peptide 1334.05]
A*0201 (HLA-A*0201 (HLA-A2.1)): 0.6900

YMCNSSCMGGM [Peptide 1323.29]
A*0201 (HLA-A*0201 (HLA-A2.1)): 0.0075

YMIMVKBWMI [Peptide 1334.04]
A*0201 (HLA-A*0201 (HLA-A2.1)): 0.2700

YVKVLEYVI
binding to HLA-A2.1 (column 3; no allele head shown for these rows) (HLA-A*0201 (HLA-A2.1)): 0.0002
